# Experimental data as given in EP4733303A1, “MUSCARINIC M4 RECEPTOR AGONIST AND USE THEREOF” (Haisco Pharmaceutical Group Co., Ltd., priority 2023, dated 2024).
# Target: T1, M4 receptor (Homo sapiens, UniProt P08173)
# T1 construct: expressed in transfected cells; host or cells: CHO (M4-CHO cells)
# T1 sequence (P08173 1-479): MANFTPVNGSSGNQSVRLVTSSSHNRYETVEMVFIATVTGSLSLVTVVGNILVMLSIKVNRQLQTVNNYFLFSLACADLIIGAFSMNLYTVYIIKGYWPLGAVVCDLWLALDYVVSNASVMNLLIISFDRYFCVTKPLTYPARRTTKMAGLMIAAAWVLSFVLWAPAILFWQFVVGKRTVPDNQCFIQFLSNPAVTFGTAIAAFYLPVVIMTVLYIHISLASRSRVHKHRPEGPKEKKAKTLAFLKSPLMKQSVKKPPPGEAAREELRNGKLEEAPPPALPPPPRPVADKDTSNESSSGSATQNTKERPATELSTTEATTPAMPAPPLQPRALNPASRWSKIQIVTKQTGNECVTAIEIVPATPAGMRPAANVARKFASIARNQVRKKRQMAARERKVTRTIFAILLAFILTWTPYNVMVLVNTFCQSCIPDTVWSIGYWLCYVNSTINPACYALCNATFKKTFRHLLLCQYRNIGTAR
# Assay: PAM agonistic activity of compound on M4 receptor (FLIPR Calcium 6 assay in M4-CHO cells)
# Type: cell-based
# Settings: with acetylcholine (Ach), final concentration 3 nM
# Experimental: • 1). Cell plating: M4-CHO cells were digested, collected, and resuspended. After cell counting, the cell suspension was seeded into a 384-well cell plate at a density of: 1.2 × 10^4 cells/25 µL/well. The cell plate was then cultured in a 37°C, 5% CO2 incubator for about 16-20 h. • 2). Day 2: Assay Buffer was prepared according to the instructions of the FLIPR Calcium 6 Assay Kit. Component A (20×) was thawed to room temperature and diluted with the Assay Buffer to prepare a loading buffer (1×), which was stored at room temperature until use. • 3). The culture medium was removed from the cell plate. 40 µL of the loading buffer (1×) was quickly added to each well. The cell plate was then centrifuged and incubated at 37°C in the dark for 120 min. • 4). Working solutions of the positive control compound and the test compounds were prepared. An acetylcholine (Ach) agonist compound solution was prepared (final concentration: 3 nM). The PAM compound and the Ach agonist solution were mixed at a 1 : 1 ratio, and the mixture was transferred into a 384-well compound source plate at 20 µL per well. • 5). The cell plate, the compound source plate, and the pipette tips were placed into the corresponding positions within the FLIPR instrument. 10 µL of the diluted compound from step 4 was added into each experimental well using the FLIPR Tetra. Data was collected at the wavelength of 515 nm-575 nm. • 6). The signal values were plotted against the compound concentrations. Nonlinear regression analysis was performed using GraphPad Prism software for curve fitting and EC50 calculation.
# The experimental results are shown in Table 1, where A represents EC50 < […]; B represents 100 nM ≤ EC50 < 500 nM, and C represents 500 nM ≤ EC50. Table 1. Agonistic activity of compounds on M4 receptor
row,EC50,SMILES
1,< 100 nM,"Cc1cc(C)c2c(n1)CN(C(=O)CC1CN(c3ccc4c(c3)C(F)C(F)C4)C1)C2 (racemic) [Compound 12, isomer 2]"
2,< 100 nM,"Cc1ccn(-c2cc(N3CC(CC(=O)N4Cc5nc(C6CCOC6)cc(C)c5C4)C3)ccn2)n1 (single isomer, unassigned) [Compound 185]"
3,< 100 nM,"Cc1cc(C2CCOC2)nc2c1CN(C(=O)CC1CN(c3ccnc(-n4ccc(F)n4)c3)C1)C2 (single isomer, unassigned) [Compound 187]"
4,< 100 nM,Cc1cc(C)c2c(n1)CN(C(=O)CC1CN(c3ccnc(-c4cnsc4)c3)C1)C2 [Compound 21]
5,< 100 nM,Cc1csc(-c2cc(N3CC(CC(=O)N4Cc5nc(C)cc(C)c5C4)C3)ccn2)c1 [Compound 23]
6,< 100 nM,Cc1cc(C)c2c(n1)CN(C(=O)CC1CN(c3ccnc(-n4nccc4C)c3)C1)C2 [Compound 26]
7,< 100 nM,Cc1cc(C)c2c(n1)CN(C(=O)CC1CN(c3ccnc(-n4nc(C)cc4C)c3)C1)C2 [Compound 30]
8,< 100 nM,Cc1cc(C)c2c(n1)CN(C(=O)CC1CN(c3ccnc(-n4c(C)nnc4C(F)(F)F)c3)C1)C2 [Compound 43]
9,< 100 nM,Cc1cc(C)c2c(n1)CN(C(=O)CC1CN(c3cc(-n4ccc(C)n4)ncn3)C1)C2 [Compound 48]
10,< 100 nM,Cc1cc(C)c2c(n1)CN(C(=O)CC1CN(c3ccnc(OC4CC4)c3)C1)C2 [Compound 49]
11,< 100 nM,Cc1cc(C)c2c(n1)CN(C(=O)CC1CN(c3ccnc(Oc4cnn(C)c4)c3)C1)C2 [Compound 53]
12,< 100 nM,Cc1cc(C)c2c(n1)CN(C(=O)CC1CN(c3ccnc(-n4cnc(C)n4)c3)C1)C2 [Compound 54]
13,< 100 nM,Cc1cc(C)c2c(n1)CN(C(=O)CC1CN(c3ccnc(-n4cccn4)c3)C1)C2 [Compound 56]
14,< 100 nM,Cc1nc2c(c(N3CCC3)n1)CN(C(=O)CC1CN(c3ccnc(-n4nccc4C)c3)C1)C2 [Compound 62]
15,< 100 nM,Cc1cc(C)c2c(n1)CN(C(=O)CC1CN(c3ccnc(-c4ccc5ccnn5c4)c3)C1)C2 [Compound 63]
16,< 100 nM,Cc1cc(C)c2c(n1)CN(C(=O)CC1CN(c3ccnc(NC4CC(F)(F)C4)c3)C1)C2 [Compound 67]
17,< 100 nM,Cc1cc(C)c2c(n1)CN(C(=O)CC1CN(c3ccnc(-n4ccc(F)n4)c3)C1)C2 [Compound 76]
18,< 100 nM,Cc1coc(-c2cc(N3CC(CC(=O)N4Cc5nc(C)cc(C)c5C4)C3)ccn2)n1 [Compound 78]
19,< 100 nM,Cc1cc(C)c2c(n1)CN(C(=O)CC1CN(c3ccnc(OC4CCC(F)(F)C4)c3)C1)C2 (stereo not shown) [Compound 83]
20,< 100 nM,Cc1ccn(-c2cc(N3CC(CC(=O)N4Cc5nc(COC6COC6)cc(C)c5C4)C3)ccn2)n1 [Compound 85]

# The remaining lines, values behind:
row,SMILES,EC50
1,"Cc1cc(C)c2c(n1)CN(C(=O)CC1CN(c3ccc4c(c3)C(F)C(F)C4)C1)C2 (racemic) [Compound 12, isomer 1]",< 100 nM
2,"Cc1cc(C2CCOC2)nc2c1CN(C(=O)CC1CN(c3ccnc(C(F)(F)F)c3)C1)C2 (single isomer, unassigned) [Compound 152]",< 100 nM
3,"Cc1cc(C2CCOC2)nc2c1CN(C(=O)CC1CN(c3ccnc(C(F)(F)F)c3)C1)C2 (single isomer, unassigned) [Compound 153]",< 100 nM
4,"Cc1cc(C2CCOC2)nc2c1CN(C(=O)CC1CN(c3ccnc(OC4CC(F)(F)C4)c3)C1)C2 (single isomer, unassigned) [Compound 154]",< 100 nM
5,"Cc1cc(C2CCOC2)nc2c1CN(C(=O)CC1CN(c3ccnc(OC4CC(F)(F)C4)c3)C1)C2 (single isomer, unassigned) [Compound 155]",< 100 nM
6,"Cc1cc(-c2cnn(C)c2)nc2c1CN(C(=O)CC1CN(c3ccnc(OC4CC(F)C4)c3)C1)C2 (single isomer, unassigned) [Compound 156]",< 100 nM
7,"Cc1ccn(-c2cc(N3CC(CC(=O)N4Cc5nc(C6CCOC6)cc(C)c5C4)C3)ccn2)n1 (single isomer, unassigned) [Compound 186]",< 100 nM
8,Cc1cc(C)c2c(n1)CN(C(=O)CC1CN(c3ccnc(-c4ccsc4)c3)C1)C2 [Compound 1],< 100 nM
9,Cc1cc(C)c2c(n1)CN(C(=O)CC1CN(c3ccnc(-c4cnn(C(F)F)c4)c3)C1)C2 [Compound 5],< 100 nM
10,Cc1cc(C)c2c(n1)CN(C(=O)CC1CN(c3ccnc(-c4cc(C(F)(F)F)nn4C)c3)C1)C2 [Compound 6],< 100 nM
11,Cc1cc(C)c2c(n1)CN(C(=O)CC1CN(c3ccnc(-c4cnn(C)c4)c3)C1)C2 [Compound 7],< 100 nM
12,Cc1cc(C)c2c(n1)CN(C(=O)CC1CN(c3ccnc(-c4cc(C(F)(F)F)n(C)n4)c3)C1)C2 [Compound 14],< 100 nM
13,Cc1cc(C)c2c(n1)CN(C(=O)CC1CN(c3ccnc(-c4ccnc(C(F)(F)F)c4)c3)C1)C2 [Compound 16],< 100 nM
14,Cc1cc(C)c2c(n1)CN(C(=O)CC1CN(c3ccnc(-c4ccnn4C)c3)C1)C2 [Compound 22],< 100 nM
15,Cc1cc(C)c2c(n1)CN(C(=O)CC1CN(c3ccnc(NC(=O)C4CC4)c3)C1)C2 [Compound 24],< 100 nM
16,Cc1cc(C)c2c(n1)CN(C(=O)CC1CN(c3ccnc(OC4CC(F)(F)C4)c3)C1)C2 [Compound 25],< 100 nM

row,SMILES,EC50
1,Cc1cc(C)c2c(n1)CN(C(=O)CC1CN(c3ccnc(-c4cnoc4)c3)C1)C2 [Compound 27],< 100 nM
2,Cc1cc(C)c2c(n1)CN(C(=O)CC1CN(c3ccnc(Oc4cnn(C(F)F)c4)c3)C1)C2 [Compound 37],< 100 nM
3,Cc1cc(C)c2c(n1)CN(C(=O)CC1CN(c3ccnc(C(=O)NC4CC4)c3)C1)C2 [Compound 38],< 100 nM
4,Cc1cc(C)c2c(n1)CN(C(=O)CC1CN(c3ccnc(-c4noc(C(F)(F)F)n4)c3)C1)C2 [Compound 39],< 100 nM
5,Cc1cnn(-c2cc(N3CC(CC(=O)N4Cc5nc(C)cc(C)c5C4)C3)ccn2)c1 [Compound 40],< 100 nM
6,Cc1cc(C)c2c(n1)CN(C(=O)CC1CN(c3ccnc(-c4nc(C(F)(F)F)nn4C)c3)C1)C2 [Compound 44],< 100 nM
7,Cc1cc(C)c2c(n1)CN(C(=O)CC1CN(c3ccnc(-n4cc(C(F)(F)F)nc4C)c3)C1)C2 [Compound 46],< 100 nM
8,Cc1cc(C)c2c(n1)CN(C(=O)CC1CN(c3ccnc(-n4cnc(C(F)(F)F)n4)c3)C1)C2 [Compound 47],< 100 nM
9,Cc1ccn(-c2cc(N3CC(CC(=O)N4Cc5nc(C)cc(C)c5C4)C3)ccn2)c1 [Compound 50],< 100 nM
10,Cc1cc(C)c2c(n1)CN(C(=O)CC1CN(c3ccnc(O[C@@H]4CCOC4)c3)C1)C2 [Compound 51],< 100 nM
11,Cc1cc(C)c2c(n1)CN(C(=O)CC1CN(c3ccnc(O[C@H]4CCOC4)c3)C1)C2 [Compound 52],< 100 nM
12,Cc1cc(C)c2c(n1)CN(C(=O)CC1CN(c3ccnc(-n4cc(C)c(C)n4)c3)C1)C2 [Compound 55],< 100 nM
13,Cc1cc(C)c2c(n1)CN(C(=O)CC1CN(c3ccnc(-n4cncn4)c3)C1)C2 [Compound 58],< 100 nM
14,Cc1cc(C)c2c(n1)CN(C(=O)CC1CN(c3ccnc(-n4cc(C)nc4C)c3)C1)C2 [Compound 75],< 100 nM
15,Cc1cc(CO)nc2c1CN(C(=O)CC1CN(c3ccnc(OC4CC(F)(F)C4)c3)C1)C2 [Compound 81],< 100 nM
16,Cc1ccn(-c2cc(N3CC(CC(=O)N4Cc5nc(CO)cc(C)c5C4)C3)ccn2)n1 [Compound 84],< 100 nM
